According to patent US20190388411A1, “NSAID ADMINISTRATION AND RELATED COMPOSITIONS, METHODS AND SYSTEMS” (Alfasigma S.p.A., priority 2013, published 2019):

How the values were obtained:
Type in all cases: in vivo, male Albino Sprague Dawley rats
[1] = Mortality in indomethacin-induced enteropathy in rats (Example 16); conditions: indomethacin […] BID + rifaximin product 50 mg/kg BID, 14 days
Procedure: A percentage of 100% of survivors was also recorded in vehicle control group (Group 1).

[2] = Blood hemoglobin levels in indomethacin-induced enteropathy in rats (Example 16)
Procedure: Twenty four hours after the last dose, the rats were euthanized and samples of blood were collected for the assessment of hemoglobin levels.
Hemoglobin analysis was performed on rat blood samples collected as reported above, by means of Quantichrom Hemoglobin assay kit (Bioassay Systems, Hayward, Calif., USA) and expressed as g/dL.

[3] = system: indomethacin - induced microscopic intestinal damage; assay: Histological analysis of intestinal damage in jejunum and ileum (Example 16); conditions: rats
Procedure: (§1) The whole intestinal tract was removed and processed for the evaluation of tissue myeloperoxidase (MPO) levels and histological analysis of intestinal damage in jejunum and ileum.
Pharmacol. Ther. 1993; 7:29-39. Upon removal, the whole intestinal tract was immediately injected with 10% formalin and left in the same fixative solution. After 30 min, it was opened along the anti-mesenteric border, cleaned of fecal content and fixed in 10% formalin for 24 h. Tissue samples were taken as described below and the full length of small intestine was measured.
In particular the following tissue samples were taken • Ileum: 1 cm of tissue proximal to the ileo-cecal valve was discarded and two specimens of 1.5-2 cm of ileum were taken at this edge as well as 5 cm away from the first ileum sample • Proximal jejunum: two specimens of 1.5-2 cm were taken 5 cm away from both the proximal and distal end of the 37.5% of the small intestine total length. • Distal jejunum: two specimens of 1.5-2 cm were taken 5 cm away from both the proximal and distal end of 81% of small intestine's total length.
After fixation, tissues were embedded into paraffin blocks and were cut into consecutive serial 3-μm sections for staining with hematoxylin and eosin. Histological damage was assessed by two observers, blind to the treatment. Each section was given a score of lesion (Type 1 to 3) (TABLE 23).
Quantitative assessment of histological damage was expressed as percentage of the total length of lesions over the total length of the histological section.

myeloperoxidase (MPO) = assay: Tissue myeloperoxidase (MPO) levels in jejunum and ileum, ELISA (Example 16)
Procedure: as §1
Specimens of intestinal tissues (30 mg) were homogenized on ice with a polytron homogenizer (QIAGEN, Milan, Italy) in 0.6 mL of ice-cold lysis buffer (200 mM NaCl, 5 mM EDTA, 10 mM Tris, 10% glycerine, 1 mM PMSF, 1 μg/ml leupeptin and 28 μg/ml aprotinin (pH 7.4). The homogenate was centrifuged 2 times at 4° C. for 15 min at 1.500 g. The supernatant was diluted 1:5 and used for determination of MPO concentration by means of enzyme-linked immunosorbent assay (ELISA) (Hycult Biotech, Uden, Netherlands). All samples were assayed within 2 day after collection. The results were expressed as nanograms of MPO per milligram of intestinal tissue.

[4] = indomethacin […] BID 14 days, alone or with gastroresistant rifaximin 25 and 50 mg/kg BID or rifaximin polymorph alpha 50 mg/kg BID
[5] = rats, indomethacin […] BID 14 days, alone or with gastroresistant rifaximin 25 or 50 mg/kg BID or rifaximin polymorph alpha 50 mg/kg BID

| Structure (SMILES) | Mortality (%) [1] | Reduction in hemoglobin values ([2]; end of the treatment period (14 days), in respect to the control) [%] | Jejunum type 2 lesions, microscopic assessment (in words) [3, 4] | Blood hemoglobin concentration (in words) ([2]; indomethacin […] BID 14 days, alone or with gastroresistant rifaximin at both doses or rifaximin polymorph alpha 50 mg/kg BID) | Reduction of MPO levels in respect to animals which did not receive rifaximin (myeloperoxidase (MPO); rats treated with indomethacin, 14 days) | Ileum tissue MPO levels (in words) (myeloperoxidase (MPO); [5]) | Jejunum tissue MPO levels (in words) (myeloperoxidase (MPO); [5]) | Ileum type 1 lesions, microscopic assessment (in words) [3, 4] | Ileum type 2 lesions, microscopic assessment (in words) [3, 4] | Jejunum type 1 lesions, microscopic assessment (in words) [3, 4] | Lesions / histological damage in ileum and jejunum, overall (in words) ([3]; with indomethacin […] BID 14 days, gastroresistant rifaximin 25 and 50 mg/kg BID, rifaximin polymorph alpha 50 mg/kg BID) |
| --- | --- | --- | --- | --- | --- | --- | --- | --- | --- | --- | --- |
| CO[C@H]1/C=C/O[C@@]2(C)Oc3c(C)c(O)c4c(O)c(c5c(nc6cc(C)ccn65)c4c3C2=O)NC(=O)/C(C)=C\C=C\[C@H](C)[C@H](O)[C@@H](C)[C@@H](O)[C@@H](C)[C@H](OC(C)=O)[C@@H]1C [rifaximin, (2S, 16Z, 18E, 20S, 21S, 22R, 23R, 24R, 25S, 26S, 27S, 28E)-5,6, 21, 23, 25 pentahydroxy-27-methoxy-2,4, 11, 16, 20, 22, 24, 26-octamethyl-2,7-(epoxypentadeca-(1,11,13)trienimino) benzofuro (4,5-e) pyrido (1,2,-a benzimidazole-1,15(2H)dione, 25-acetate)] | do not displayed death | 12 | significantly reduced Type 2 lesions |  |  |  |  |  |  |  |  |
| CO[C@H]1/C=C/O[C@@]2(C)Oc3c(C)c(O)c4c(O)c(c5c(nc6cc(C)ccn65)c4c3C2=O)NC(=O)/C(C)=C\C=C\[C@H](C)[C@H](O)[C@@H](C)[C@@H](O)[C@@H](C)[C@H](OC(C)=O)[C@@H]1C [rifaximin polymorph alpha, rifaximin] | not associated with deaths |  |  | these levels were decreased | about 22% | blunted | did not exert any relevant effect | significant reduction of Type 1 lesions | no significant differences were appreciated on the occurrence of type 2 lesions | reduced the degree of type 1 lesions, although mean values were not significantly different | effective in the reduction of lesions |
